Measurements reported in patent US8048862B2, “Macrocyclic inhibitors of hepatitis C virus replication” (priority 2008, dated 2011).
Like-named read-outs stand apart in the source and are kept apart here.

Biological target: NS3/NS4 complexes (Hepatitis C virus genotype 1a, UniProt P27958)
Assay: NS3/NS4 inhibition activity (IC50)
Type: biochemical
From the text: NS3-NS4 inhibition activity can be determined using known assay methods. For example, NS3/NS4 complexes may be formed and inhibitory concentrations of test compounds determined as described in U.S. Patent Application Publication Number 2007/0054842 paragraph numbers 1497-1509, which is incorporated herein by reference in its entirety. Similarly, hepatitis C replicon EC50 may be determined using known assay methods such as described in U.S. Patent Application Publication Number 2007/0054842 paragraph numbers 1510-1515. Assays may be conducted at ambient temperature (23° C.) in assay buffer containing 50 mM Tris-HCl, pH 7.5, 15% glycerol, 0.6 mM Lauryldimethylamine Oxide (LDAO), 25 μM NS4A peptide, and 10 mM Dithiothreitol (DTT).

NS3/NS4 complexes, sequence (P27958 1027-1657): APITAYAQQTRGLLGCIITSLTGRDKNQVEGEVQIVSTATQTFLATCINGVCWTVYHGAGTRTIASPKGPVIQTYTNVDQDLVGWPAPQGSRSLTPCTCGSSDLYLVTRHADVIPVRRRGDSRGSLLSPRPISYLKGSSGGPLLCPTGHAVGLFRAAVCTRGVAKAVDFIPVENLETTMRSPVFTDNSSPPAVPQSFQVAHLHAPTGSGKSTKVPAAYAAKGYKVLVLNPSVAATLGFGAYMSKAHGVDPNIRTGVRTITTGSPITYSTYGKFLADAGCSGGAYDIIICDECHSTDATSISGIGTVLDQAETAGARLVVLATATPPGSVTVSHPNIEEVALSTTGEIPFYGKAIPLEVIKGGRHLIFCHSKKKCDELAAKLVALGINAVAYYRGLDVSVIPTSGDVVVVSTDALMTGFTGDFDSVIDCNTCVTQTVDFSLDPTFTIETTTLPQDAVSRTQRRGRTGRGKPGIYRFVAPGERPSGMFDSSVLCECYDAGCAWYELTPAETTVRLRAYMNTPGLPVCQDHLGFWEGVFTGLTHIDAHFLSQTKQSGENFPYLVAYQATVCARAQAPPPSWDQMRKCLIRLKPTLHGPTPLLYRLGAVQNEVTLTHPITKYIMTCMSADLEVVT
NS3/NS4 complexes, sequence (P27958 1658-1711): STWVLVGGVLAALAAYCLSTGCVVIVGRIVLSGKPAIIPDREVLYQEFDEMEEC

SMILES	IC50 (Table 3, read-out: IC50) [nM]	IC50 (IC50, Table 3) [nM]	other results
CN(C)C(=O)O[C@@H]1C[C@H]2C(=O)N[C@]3(C(=O)NS(=O)(=O)CC(=O)Nc4ccccc4)C[C@H]3/C=C\CCCCC[C@H](NC(=O)OC(C)(C)C)C(=O)N2C1 [Compound 1095]	> 100		
CNC(=O)COc1ccccc1S(=O)(=O)NC(=O)[C@@]12C[C@H]1/C=C\CCCCC[C@H](NC(=O)OC(C)(C)C)C(=O)N1C[C@H](OC(=O)N(C)C)C[C@H]1C(=O)N2 [Compound 1097]	< 10		
O=C1N[C@]2(C(=O)O)C[C@H]2/C=C\CCCCC[C@H](Nc2ccc(C(F)(F)F)cc2)C(=O)N2C[C@H](Oc3nc4ccccc4s3)C[C@@H]12 [Compound 329]			IC50 (Table 2, read-out: IC50): 75 to 500 nM
CC(C)(C)OC(=O)N[C@H]1CCCCC/C=C\[C@@H]2C[C@@]2(C(=O)NOc2ccccc2)NC(=O)[C@@H]2C[C@@H](Oc3nc4ccc(Br)cc4s3)CN2C1=O [Compound 1022]	> 100		
CN(C)C(=O)O[C@@H]1C[C@H]2C(=O)N[C@]3(C(=O)N4CCC[C@H]4C(=O)NCc4ccccc4)C[C@H]3/C=C\CCCCC[C@H](NC(=O)OC(C)(C)C)C(=O)N2C1 [Compound 1068]		> 100	
CN(C)C(=O)O[C@@H]1C[C@H]2C(=O)N[C@]3(C(=O)NCC(=O)NCc4ccccc4)C[C@H]3/C=C\CCCCC[C@H](NC(=O)OC(C)(C)C)C(=O)N2C1 [Compound 1066]		> 100	
COc1ccc2nc(O[C@@H]3C[C@H]4C(=O)N[C@]5(C(=O)NOc6ccccc6)C[C@H]5/C=C\CCCCC[C@H](NC(=O)OC(C)(C)C)C(=O)N4C3)sc2c1 [Compound 1025]	> 100		
CC(=O)O[C@@H]1C[C@H]2C(=O)N[C@]3(C(=O)N4CCC[C@@H]4C(=O)NCc4ccccc4)C[C@H]3/C=C\CCCCC[C@H](NC(=O)OC(C)(C)C)C(=O)N2C1 [Compound 1088]		> 100	
CO[C@@H]1C[C@H]2C(=O)N[C@]3(C(=O)N4CCC[C@@H]4C(=O)NCc4ccccc4)C[C@H]3/C=C\CCCCC[C@H](NC(=O)OC(C)(C)C)C(=O)N2C1 [Compound 1089]		> 100	
CN(C)C(=O)O[C@@H]1C[C@H]2C(=O)N[C@]3(C(=O)NCCC(=O)NCc4ccccc4)C[C@H]3/C=C\CCCCC[C@H](NC(=O)OC(C)(C)C)C(=O)N2C1 [Compound 1067]	> 100		
Cc1ccc2nc(O[C@@H]3C[C@H]4C(=O)N[C@]5(C(=O)NOc6ccccc6)C[C@H]5/C=C\CCCCC[C@H](NC(=O)OC(C)(C)C)C(=O)N4C3)sc2c1 [Compound 1024]	> 100		
CC(C)(C)OC(=O)N[C@H]1CCCCC/C=C\[C@@H]2C[C@@]2(C(=O)N2CCC[C@H]2C(=O)NCc2ccccc2)NC(=O)[C@@H]2C[C@@H](OC(=O)N3Cc4cccc(F)c4C3)CN2C1=O [Compound 1054]		> 100	
O=C1N[C@]2(C(=O)O)C[C@H]2/C=C\CCCCC[C@H](Nc2cc(F)cc(C(F)(F)F)c2)C(=O)N2C[C@H](Oc3nc4ccccc4s3)C[C@@H]12 [Compound 321]			IC50 (Table 2, read-out: IC50): 10 to 75 nM
CC(C)(C)OC(=O)N[C@H]1CCCCC/C=C\[C@@H]2C[C@@]2(C(=O)N2CCC[C@H]2C(=O)NCc2ccccc2)NC(=O)[C@@H]2C[C@@H](O)CN2C1=O [Compound 1056]		> 100	
CC(C)(C)OC(=O)N[C@H]1CCCCC/C=C\[C@@H]2C[C@@]2(C(=O)N2CCC[C@@H]2C(=O)NCc2ccccc2)NC(=O)[C@@H]2C[C@@H](O)CN2C1=O [Compound 1087]		> 100	
COc1ccc2c(O[C@@H]3C[C@H]4C(=O)N[C@]5(C(=O)NS(=O)(=O)C6(C)CC6)C[C@H]5/C=C\CCCCC[C@H](Nc5cc(F)cc(C(F)(F)F)c5)C(=O)N4C3)cc(-c3ccccc3)nc2c1 [Compound 357]			IC50 (Table 2, read-out: IC50): 10 to 75 nM
CC(C)(C)OC(=O)N[C@H]1CCCCC/C=C\[C@@H]2C[C@@]2(C(=O)NOc2ccccc2)NC(=O)[C@@H]2C[C@@H](Oc3nc4ccc(F)cc4s3)CN2C1=O [Compound 1021]	10 to 100		
O=C1N[C@]2(C(=O)O)C[C@H]2/C=C\CCCCC[C@H](Nc2ccc3ccccc3c2)C(=O)N2C[C@H](Oc3nc4ccccc4s3)C[C@@H]12 [Compound 327]			IC50 (Table 2, read-out: IC50): 10 to 75 nM

SMILES	IC50 (Table 3, read-out: IC50) [nM]	IC50 (IC50, Table 3) [nM]	other results
CC(C)n1c(O[C@@H]2C[C@H]3C(=O)N[C@]4(C(=O)NS(=O)(=O)N(C)C)C[C@H]4/C=C\CCCCC[C@H](NC(=O)OC(C)(C)C)C(=O)N3C2)nc2ccncc21 [Compound 1145]	< 10		
CC(C)(C)OC(=O)N[C@H]1CCCCC/C=C\[C@@H]2C[C@@]2(C(=O)NCC(=O)NCc2ccccc2)NC(=O)[C@@H]2C[C@@H](O)CN2C1=O [Compound 1055]		> 100	
CC(C)(C)OC(=O)N[C@H]1CCCCC/C=C\[C@@H]2C[C@@]2(C(=O)O)NC(=O)[C@@H]2C[C@@H](Oc3nc4cc(F)ccc4o3)CN2C1=O [Compound 1043]	10 to 100		
O=C1N[C@]2(C(=O)O)C[C@H]2/C=C\CCCCC[C@H](Nc2ccc(F)c(F)c2)C(=O)N2C[C@H](Oc3nc4ccccc4s3)C[C@@H]12 [Compound 343]			IC50 (Table 2, read-out: IC50): 75 to 500 nM
Cc1ccc2nc(O[C@@H]3C[C@H]4C(=O)N[C@]5(C(=O)O)C[C@H]5/C=C\CCCCC[C@H](Nc5cc(F)cc(C(F)(F)F)c5)C(=O)N4C3)sc2c1 [Compound 323]			IC50 (Table 2, read-out: IC50): < 10 nM
CC(=O)O[C@@H]1C[C@H]2C(=O)N[C@]3(C(=O)NS(=O)(=O)CC(=O)Nc4ccccc4)C[C@H]3/C=C\CCCCC[C@H](NC(=O)OC(C)(C)C)C(=O)N2C1 [Compound 1098]	> 100		
CC(C)(C)OC(=O)N[C@H]1CCCCC/C=C\[C@@H]2C[C@@]2(C(=O)NOc2ccccc2)NC(=O)[C@@H]2C[C@@H](Oc3nc4ccccc4s3)CN2C1=O [Compound 1020]	10 to 100		
CO[C@@H]1C[C@H]2C(=O)N[C@]3(C(=O)N4CCC[C@H]4C(=O)NCc4ccccc4)C[C@H]3/C=C\CCCCC[C@H](NC(=O)OC(C)(C)C)C(=O)N2C1 [Compound 1064]		> 100	
CC(=O)O[C@@H]1C[C@H]2C(=O)N[C@]3(C(=O)NCCC(=O)NCc4ccccc4)C[C@H]3/C=C\CCCCC[C@H](NC(=O)OC(C)(C)C)C(=O)N2C1 [Compound 1059]	> 100		
O=C1N[C@]2(C(=O)O)C[C@H]2/C=C\CCCCC[C@H](Nc2cccc(F)c2)C(=O)N2C[C@H](Oc3nc4ccccc4s3)C[C@@H]12 [Compound 123]			IC50 (Table 2, read-out: IC50): 75 to 500 nM
Cc1ccc2oc(O[C@@H]3C[C@H]4C(=O)N[C@]5(C(=O)O)C[C@H]5/C=C\CCCCC[C@H](NC(=O)OC(C)(C)C)C(=O)N4C3)nc2c1 [Compound 1044]	> 100		
CN(C)C(=O)O[C@@H]1C[C@H]2C(=O)N[C@]3(C(=O)N4CCC[C@@H]4C(=O)NCc4ccccc4)C[C@H]3/C=C\CCCCC[C@H](NC(=O)OC(C)(C)C)C(=O)N2C1 [Compound 1090]		> 100	
CC(=O)O[C@@H]1C[C@H]2C(=O)N[C@]3(C(=O)NCC(=O)NCc4ccccc4)C[C@H]3/C=C\CCCCC[C@H](NC(=O)OC(C)(C)C)C(=O)N2C1 [Compound 1060]		> 100	
CC(C)(C)OC(=O)N[C@H]1CCCCC/C=C\[C@@H]2C[C@@]2(C(=O)O)NC(=O)[C@@H]2C[C@@H](Oc3nc4cccc(F)c4o3)CN2C1=O [Compound 1042]	10 to 100		
CC(C)(C)OC(=O)N[C@H]1CCCCC/C=C\[C@@H]2C[C@@]2(C(=O)NS(=O)(=O)CC(=O)Nc2ccccc2)NC(=O)[C@@H]2C[C@@H](O)CN2C1=O [Compound 1092]	> 100		
COc1cccc(N[C@H]2CCCCC/C=C\[C@@H]3C[C@@]3(C(=O)O)NC(=O)[C@@H]3C[C@@H](Oc4nc5ccccc5s4)CN3C2=O)c1 [Compound 132]			IC50 (Table 2, read-out: IC50): 75 to 500 nM
CC(C)(C)OC(=O)N[C@H]1CCCCC/C=C\[C@@H]2C[C@@]2(C(=O)NOc2ccccc2)NC(=O)[C@@H]2C[C@@H](Oc3nc4ccc(Cl)cc4s3)CN2C1=O [Compound 1023]	> 100		
